Assay results reported in patent US20250281483A1, “TRANSCRIPTION FACTOR EB ACTIVATORS AND USES THEREOF” (Astellas Engineered Small Molecules US, Incorporated, priority 2022, published 2025).

The compounds below were run against T1, TFEB (Homo sapiens, UniProt P19484) (assay: Tfeb-Translocation Assay HEK-293T-oEX-Tfeb-GFP Cell Line). Details: HEK-293T-oEX-TFEB-GFP cells; translocation positive cells ratio; read-out: TFEB Translocation EC50.
T1 sequence (P19484 1-476): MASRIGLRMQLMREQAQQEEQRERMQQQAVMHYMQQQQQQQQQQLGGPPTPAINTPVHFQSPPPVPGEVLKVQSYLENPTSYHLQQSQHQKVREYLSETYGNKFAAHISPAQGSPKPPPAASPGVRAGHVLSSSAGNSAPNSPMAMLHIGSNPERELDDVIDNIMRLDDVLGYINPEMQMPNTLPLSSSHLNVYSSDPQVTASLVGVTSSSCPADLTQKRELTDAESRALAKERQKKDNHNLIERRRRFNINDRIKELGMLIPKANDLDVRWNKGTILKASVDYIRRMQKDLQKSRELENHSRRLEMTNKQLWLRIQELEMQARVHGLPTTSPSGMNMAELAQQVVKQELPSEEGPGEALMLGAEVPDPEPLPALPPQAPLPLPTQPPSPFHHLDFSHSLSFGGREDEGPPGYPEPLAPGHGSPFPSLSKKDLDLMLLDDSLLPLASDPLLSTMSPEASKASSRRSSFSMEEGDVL
Type: cell-based
Procedure: Tfeb-Translocation Assay HEK-293T-oEX-Tfeb-GFP Cell Line
• 1). Added 2×10^6 cell into a T75 flask with 15 mL DiVEM medium (with 10% FBS, 1% PS, 1×GLUTAMAX, 1×MEM NEAA, 1×HEPES Buffer Solution and 5 ug/mL blasticidin). • 2). Culturing for 48-72 hours. Cells in logarithmic growth phase were taken for experiment. The other cells were passaged as described in step 1. • 3). Seeded 1×10^4 cells/30 μL/well into 384-well plate (BD 356663). Cultured overnight at 37° C. & 5% CO2 incubator. • 4). Note: Used cells <10 passage
• 1). Compounds were firstly diluted by DMSO to the stock needed (10 mM), and aliquoted and stored at −20° C. • 2). Took one aliquot each time and made 3-fold or 2-fold dilutions as indicated, total 10 doses plus one DMSO control well in the source plate. • 3). Added 150 or 90 nL/well compounds solution to the assay plate by ECHO and incubated for 6 or 18 hours respectively at 37° C. & 5% CO2 incubator.
• 1). Added 30 uL 8% PFA into the wells and incubated 20 min at room temperature. • 2). Discarded the medium, washed the wells twice with DPBS to eliminate foam and bubbles in the well.
• 1). Diluted Hoechest-333824 in DPBS to get 2 μg/mL solution and added 30 uL/well into assay plate, incubated at room temperature for 20 mins. • 2). Discarded the supernatant, washed the wells twice with DPBS to eliminate foam and bubbles in the well. Then added DPBS 20 uL/well.
3). Scanned Plate by Operetta.
• 1). Reference compound: Torin 1 • 2). Test compounds: C1, C2, C3, C4, C5, C6. • 3). Diluted compounds in 384 LDV-dilution plate according to the dilution plate map • 4). Compounds starting concentration: Torin 1: 300 nM and Test compounds: 50 uM.
• 1). Selected all nucleus by Operetta as ‘All Cells’ • 2). Calculated the EGFP average intensity inside the Nucleus region. • 3). Selected population that the EGFP mean intensity inside the Nucleus region>background as the EGFP-positive cells • 4). Selected the Surrounding region of the nucleus and calculated the EGFP mean intensity of the region • 5). Inside the EGFP-positive cell population, selected the cells with EGFP mean intensity inside the Nucleus region/the EGFP mean intensity inside the surrounding region=1.2 (This ratio could be slightly adjusted from time to time) as the Translocation positive cell. • 6). Outputted the ratio of Translocation positive cell/EGFP-positive cells as the Translocation Positive Ratio. • 7). Each time set the ratio of DMSO group (Control Group) as ˜15% and then normalized the compound group to the DMSO group.

SMILES	EC50
Cc1nc2ccn(Cc3ccccc3)c(=O)c2cc1C(=O)NCc1ccc(F)cn1 [Example 35, 6-benzyl-N-((5-fluoropyridin-2-yl)methyl)-2-methyl-5-oxo-5,6-dihydro-1,6-naphthyridine-3-carboxamide]	< 100 nM
Cc1nc2ccn(Cc3ccccc3)c(=O)c2cc1C(=O)NCc1ncccc1F [Example 36, 6-benzyl-N-((3-fluoropyridin-2-yl)methyl)-2-methyl-5-oxo-5,6-dihydro-1,6-naphthyridine-3-carboxamide]	1000 to 10000 nM
Cc1nc2ccn(C(C)c3ccccc3)c(=O)c2cc1C(=O)NCc1ccccn1 (stereo not shown) [Example 37, 2-methyl-5-oxo-6-(1-phenylethyl)-N-(pyridin-2-ylmethyl)-5,6-dihydro-1,6-naphthyridine-3-carboxamide]	100 to 1000 nM
Cc1nc2ccn(Cc3ccccc3)c(=O)c2cc1C(=O)NCc1ccc(Cl)cn1 [Example 38, 6-benzyl-N-((5-chloropyridin-2-yl)methyl)-2-methyl-5-oxo-5,6-dihydro-1,6-naphthyridine-3-carboxamide]	< 100 nM
Cc1nc2ccn(Cc3ccccc3)c(=O)c2cc1C(=O)NCc1cc(F)ccn1 [Example 39, 6-benzyl-N-((4-fluoropyridin-2-yl)methyl)-2-methyl-5-oxo-5,6-dihydro-1,6-naphthyridine-3-carboxamide]	100 to 1000 nM
Cc1nc2ccn(CC3CCCCC3)c(=O)c2cc1C(=O)NCc1ccccn1 [Example 40, 6-(cyclohexylmethyl)-2-methyl-5-oxo-N-(pyridin-2-ylmethyl)-5,6-dihydro-1,6-naphthyridine-3-carboxamide]	≥ 10000 nM
Cc1nc2ccn(Cc3ccccn3)c(=O)c2cc1C(=O)NCc1ccccn1 [Example 41, 2-methyl-5-oxo-N,6-bis(pyridin-2-ylmethyl)-5,6-dihydro-1,6-naphthyridine-3-carboxamide]	1000 to 10000 nM
CNC(=O)c1cc2c(=O)n(Cc3ccccc3)ccc2nc1C [Example 42, 6-benzyl-N,2-dimethyl-5-oxo-5,6-dihydro-1,6-naphthyridine-3-carboxamide]	≥ 10000 nM
Cc1nc2ccn(Cc3ccccc3)c(=O)c2cc1C(=O)NCc1ccc(C(N)=O)cc1 [Example 43, 6-benzyl-N-(4-carbamoylbenzyl)-2-methyl-5-oxo-5,6-dihydro-1,6-naphthyridine-3-carboxamide]	≥ 10000 nM
Cc1nc2ccn(Cc3ccc(F)cn3)c(=O)c2cc1C(=O)NCc1ccccn1 [Example 44, 6-((5-fluoropyridin-2-yl)methyl)-2-methyl-5-oxo-N-(pyridin-2-ylmethyl)-5,6-dihydro-1,6-naphthyridine-3-carboxamide]	1000 to 10000 nM
Cc1nc2ccn(C(C)C)c(=O)c2cc1C(=O)NCc1ccccn1 [Example 45, 6-isopropyl-2-methyl-5-oxo-N-(pyridin-2-ylmethyl)-5,6-dihydro-1,6-naphthyridine-3-carboxamide]	100 to 1000 nM
Cc1nc2ccn(-c3ccccc3)c(=O)c2cc1C(=O)NCc1ccccn1 [Example 46, 2-methyl-5-oxo-6-phenyl-N-(pyridin-2-ylmethyl)-5,6-dihydro-1,6-naphthyridine-3-carboxamide]	1000 to 10000 nM
Cc1nc2ccn(Cc3ccc(F)cc3)c(=O)c2cc1C(=O)NCc1ccccn1 [Example 47, 6-(4-fluorobenzyl)-2-methyl-5-oxo-N-(pyridin-2-ylmethyl)-5,6-dihydro-1,6-naphthyridine-3-carboxamide]	< 100 nM
Cc1cnc(Cn2ccc3nc(C)c(C(=O)NCc4ccccn4)cc3c2=O)o1 [Example 48, 2-methyl-6-((5-methyloxazol-2-yl)methyl)-5-oxo-N-(pyridin-2-ylmethyl)-5,6-dihydro-1,6-naphthyridine-3-carboxamide]	≥ 10000 nM
Cc1nc2ccn(Cc3cnn(C)c3)c(=O)c2cc1C(=O)NCc1ccccn1 [Example 49, 2-methyl-6-((1-methyl-1H-pyrazol-4-yl)methyl)-5-oxo-N-(pyridin-2-ylmethyl)-5,6-dihydro-1,6-naphthyridine-3-carboxamide]	≥ 10000 nM
Cc1nc2ccn(Cc3ccncc3)c(=O)c2cc1C(=O)NCc1ccccn1 [Example 52, 2-methyl-5-oxo-N-(pyridin-2-ylmethyl)-6-(pyridin-4-ylmethyl)-5,6-dihydro-1,6-naphthyridine-3-carboxamide]	≥ 10000 nM
Cc1nc2ccn(C)c(=O)c2cc1C(=O)NCc1ccccn1 [Example 53, 2,6-dimethyl-5-oxo-N-(pyridin-2-ylmethyl)-5,6-dihydro-1,6-naphthyridine-3-carboxamide]	≥ 10000 nM
Cc1ccc(Cn2ccc3nc(C)c(C(=O)NCc4ccccn4)cc3c2=O)cc1 [Example 54, 2-methyl-6-(4-methylbenzyl)-5-oxo-N-(pyridin-2-ylmethyl)-5,6-dihydro-1,6-naphthyridine-3-carboxamide]	< 100 nM
Cc1nc2ccn(Cc3cccc(F)c3)c(=O)c2cc1C(=O)NCc1ccccn1 [Example 55, 6-(3-fluorobenzyl)-2-methyl-5-oxo-N-(pyridin-2-ylmethyl)-5,6-dihydro-1,6-naphthyridine-3-carboxamide]	< 100 nM
Cc1nc2ccn(Cc3ccccc3F)c(=O)c2cc1C(=O)NCc1ccccn1 [Example 56, 6-(2-fluorobenzyl)-2-methyl-5-oxo-N-(pyridin-2-ylmethyl)-5,6-dihydro-1,6-naphthyridine-3-carboxamide]	100 to 1000 nM
Cc1nc2ccn(Cc3ccccc3)c(=O)c2cc1C(=O)NCc1cc(F)c(Cl)cn1 [Example 57, 6-benzyl-N-((5-chloro-4-fluoropyridin-2-yl)methyl)-2-methyl-5-oxo-5,6-dihydro-1,6-naphthyridine-3-carboxamide]	< 100 nM
Cc1nc2ccn(Cc3cccnc3)c(=O)c2cc1C(=O)NCc1ccccn1 [Example 58, 2-methyl-5-oxo-N-(pyridin-2-ylmethyl)-6-(pyridin-3-ylmethyl)-5,6-dihydro-1,6-naphthyridine-3-carboxamide]	≥ 10000 nM
COCCOCCOCCn1ccc2nc(C)c(C(=O)NCc3ccc(Cl)cn3)cc2c1=O [Example 59, N-((5-chloropyridin-2-yl)methyl)-6-(2-(2-(2-methoxyethoxy)ethoxy)ethyl)-2-methyl-5-oxo-5,6-dihydro-1,6-naphthyridine-3-carboxamide]	≥ 10000 nM
Cc1nc2ccn(CC34CC(C3)C4)c(=O)c2cc1C(=O)NCc1ccccn1 [Example 60, 6-(bicyclo[1.1.1]pentan-1-ylmethyl)-2-methyl-5-oxo-N-(pyridin-2-ylmethyl)-5,6-dihydro-1,6-naphthyridine-3-carboxamide]	1000 to 10000 nM
Cc1nc2ccn(Cc3ccc(F)c(F)c3)c(=O)c2cc1C(=O)NCc1ccccn1 [Example 61, 6-(3,4-difluorobenzyl)-2-methyl-5-oxo-N-(pyridin-2-ylmethyl)-5,6-dihydro-1,6-naphthyridine-3-carboxamide]	< 100 nM
Cc1nc2ccn(Cc3ccc(F)c(F)c3)c(=O)c2cc1C(=O)NCc1cc(F)c(F)cn1 [Example 62, 6-(3,4-difluorobenzyl)-N-((4,5-difluoropyridin-2-yl)methyl)-2-methyl-5-oxo-5,6-dihydro-1,6-naphthyridine-3-carboxamide]	< 100 nM
Cc1nc2ccn(Cc3ccc(F)c(F)c3)c(=O)c2cc1C(=O)NCc1ccc(F)cn1 [Example 63, 6-(3,4-difluorobenzyl)-N-((5-fluoropyridin-2-yl)methyl)-2-methyl-5-oxo-5,6-dihydro-1,6-naphthyridine-3-carboxamide]	< 100 nM
COCCOCCOc1ccc(Cn2ccc3nc(C)c(C(=O)NCc4ccc(Cl)cn4)cc3c2=O)cc1 [Example 64, N-((5-chloropyridin-2-yl)methyl)-6-(4-(2-(2-methoxyethoxy)ethoxy)benzyl)-2-methyl-5-oxo-5,6-dihydro-1,6-naphthyridine-3-carboxamide]	1000 to 10000 nM
